# Experimental data from patent US20230136600A1, “Method and device for screening antigen epitope polypeptide” (priority 2020, published 2023).
# Experiments:
# Balb/c mice = assay: Polypeptide chip-based vaccine immunogenicity scoring system; assay type: in vivo; parameters: key to A2: whether the 95 percentile of the last sampling is increased compared with the end point: Y = rise; N = no rise; details: for A: 95 percentile grouping number score / B: Mouse performance score: total score = 5
# [1] = tested on: novel coronavirus (live coronavirus), vero cells; assay: In-vitro live virus neutralization experiment with serum of immunized mice (CPE method); assay type: in vivo, SARS-CoV-2; details: Embodiment I: single peptide 100 μg + MF59 at Day 0, 14, 28, Balb/c mice, serum Day 35
# [2] = Embodiment III, polypeptide-KLH
# [3] = Embodiment III, polypeptide-KLH, Mix1-10
# [4] = Embodiment III, polypeptide-KLH, value of the whole mix
# [5] = adjuvant AddaVax, 7 peptides co-immunized in mice
# [6] = adjuvant Adju-Phos, 7 peptides co-immunized in mice
# [7] = adjuvant Alhydrogel, 7 peptides co-immunized in mice
# [8] = adjuvant Imjet Alumn, 7 peptides co-immunized in mice
# [9] = adjuvant MA103A, 7 peptides co-immunized in mice
# [10] = adjuvant MA103B, 7 peptides co-immunized in mice
sequence,measurement,setting,value
VYDPLQPEL (SARS-CoV-2) [SEQ ID NO:34],A2: whether the 95 percentile of the last sampling is increased compared with the end point,"Balb/c mice; Embodiment II, Combination 1",N
same,B1: D 0-D 14 95 percentile rise in the number of mice,"Balb/c mice; Embodiment II, Combination 1",5
same,B2: D 0-D 21 95 percentile rise in the number of mice,"Balb/c mice; Embodiment II, Combination 1",0
same,B3: D 14-D 21 95 percentile rise in the number of mice,"Balb/c mice; Embodiment II, Combination 1",0
same,B4: D 21-D 28 95 percentile rise in the number of mice,"Balb/c mice; Embodiment II, Combination 1",1
same,Total single peptide,"Balb/c mice; Embodiment II, Combination 1, A*3 + B*2 + C*1",18.9
same,A: 95 percentile grouping number score,"Balb/c mice; Embodiment II, Combination 1",5
same,B: Mouse performance score,"Balb/c mice; Embodiment II, Combination 1",1.7
same,A1: difference between a highest median and a D 0 median (95 percentile),"Balb/c mice; Embodiment II, mice immunized with Combination 1",0.21
same,B1: D 0-D 14 95 percentile rise in the number of mice,Balb/c mice; [2],3
same,B2: D 0-D 21 95 percentile rise in the number of mice,Balb/c mice; [2],3
same,B3: D 14-D 21 95 percentile rise in the number of mice,Balb/c mice; [2],1
same,B4: D 21-D 28 95 percentile rise in the number of mice,Balb/c mice; [2],0
same,A1: difference between a highest median and a D 0 median (95 percentile),Balb/c mice; [3],0.08
same,A2: whether the 95 percentile of the last sampling is increased compared with the end point,Balb/c mice; [3],N
same,Total single peptide,"Balb/c mice; Embodiment III, polypeptide-KLH, A*3 + B*2 + C*1",13.4
same,A: 95 percentile grouping number score,Balb/c mice; [2],3
same,B: Mouse performance score,Balb/c mice; [2],1.7
same,C1: #A timing-sequence response peptide fragment set,Balb/c mice; [4],823
same,C2: #B vaccine specificity peptide fragment set,Balb/c mice; [4],398
same,C3: Intersection of A and B,Balb/c mice; [4],7
same,C4: Percentage of the intersection in set B,Balb/c mice; [4],1.759
same,C: Timing-sequence response and specificity score,Balb/c mice; [4],1
same,1) 95 percentile grouping number A,Balb/c mice; [5],3.5
same,1) 95 percentile grouping number A1,Balb/c mice; [5],0.05
same,2) Mouse performance B,Balb/c mice; [5],2.4
same,2) Mouse performance B1,Balb/c mice; [5],4
same,2) Mouse performance B2,Balb/c mice; [5],4
same,2) Mouse performance B3,Balb/c mice; [5],1
same,3) Timing-sequence response and specificity C,Balb/c mice; [5],0
same,3) Timing-sequence response and specificity C1,Balb/c mice; [5],237
same,3) Timing-sequence response and specificity C2,Balb/c mice; [5],1244
same,3) Timing-sequence response and specificity C3,Balb/c mice; [5],0
same,3) Timing-sequence response and specificity C4,Balb/c mice; [5],0.000
same,Total single peptide,Balb/c mice; [5],15.3
same,1) 95 percentile grouping number A,Balb/c mice; [6],5
same,1) 95 percentile grouping number A1,Balb/c mice; [6],0.08
same,2) Mouse performance B,Balb/c mice; [6],2.5
same,2) Mouse performance B1,Balb/c mice; [6],3
same,2) Mouse performance B2,Balb/c mice; [6],4
same,2) Mouse performance B3,Balb/c mice; [6],2
same,3) Timing-sequence response and specificity C,Balb/c mice; [6],0
same,3) Timing-sequence response and specificity C1,Balb/c mice; [6],203
same,3) Timing-sequence response and specificity C2,Balb/c mice; [6],1244
same,3) Timing-sequence response and specificity C3,Balb/c mice; [6],0
same,3) Timing-sequence response and specificity C4,Balb/c mice; [6],0.000
same,Total single peptide,Balb/c mice; [6],20
same,1) 95 percentile grouping number A,Balb/c mice; [7],5
same,1) 95 percentile grouping number A1,Balb/c mice; [7],0.06
same,2) Mouse performance B,Balb/c mice; [7],2.6
same,2) Mouse performance B1,Balb/c mice; [7],4
same,2) Mouse performance B2,Balb/c mice; [7],3
same,2) Mouse performance B3,Balb/c mice; [7],2
same,3) Timing-sequence response and specificity C,Balb/c mice; [7],1
same,3) Timing-sequence response and specificity C1,Balb/c mice; [7],123
same,3) Timing-sequence response and specificity C2,Balb/c mice; [7],1244
same,3) Timing-sequence response and specificity C3,Balb/c mice; [7],2
same,3) Timing-sequence response and specificity C4,Balb/c mice; [7],0.161
same,Total single peptide,Balb/c mice; [7],20.7
same,1) 95 percentile grouping number A,Balb/c mice; [8],5
same,1) 95 percentile grouping number A1,Balb/c mice; [8],0.11
same,2) Mouse performance B,Balb/c mice; [8],2.1
same,2) Mouse performance B1,Balb/c mice; [8],5
same,2) Mouse performance B2,Balb/c mice; [8],3
same,2) Mouse performance B3,Balb/c mice; [8],0
same,3) Timing-sequence response and specificity C,Balb/c mice; [8],1
same,3) Timing-sequence response and specificity C1,Balb/c mice; [8],100
same,3) Timing-sequence response and specificity C2,Balb/c mice; [8],1244
same,3) Timing-sequence response and specificity C3,Balb/c mice; [8],3
same,3) Timing-sequence response and specificity C4,Balb/c mice; [8],0.241
same,Total single peptide,Balb/c mice; [8],19.7
same,1) 95 percentile grouping number A,Balb/c mice; [9],5
same,1) 95 percentile grouping number A1,Balb/c mice; [9],0.115
same,2) Mouse performance B,Balb/c mice; [9],2.5
same,2) Mouse performance B1,Balb/c mice; [9],5
same,2) Mouse performance B2,Balb/c mice; [9],5
same,2) Mouse performance B3,Balb/c mice; [9],0
same,3) Timing-sequence response and specificity C,Balb/c mice; [9],1
same,3) Timing-sequence response and specificity C1,Balb/c mice; [9],260
same,3) Timing-sequence response and specificity C2,Balb/c mice; [9],1244
same,3) Timing-sequence response and specificity C3,Balb/c mice; [9],3
same,3) Timing-sequence response and specificity C4,Balb/c mice; [9],0.241
same,Total single peptide,Balb/c mice; [9],20.5
same,1) 95 percentile grouping number A,Balb/c mice; [10],5
same,1) 95 percentile grouping number A1,Balb/c mice; [10],0.095
same,2) Mouse performance B,Balb/c mice; [10],4.2
same,2) Mouse performance B1,Balb/c mice; [10],4
same,2) Mouse performance B2,Balb/c mice; [10],5
same,2) Mouse performance B3,Balb/c mice; [10],5
same,3) Timing-sequence response and specificity C,Balb/c mice; [10],0
same,3) Timing-sequence response and specificity C1,Balb/c mice; [10],153
same,3) Timing-sequence response and specificity C2,Balb/c mice; [10],1244
same,3) Timing-sequence response and specificity C3,Balb/c mice; [10],0
same,3) Timing-sequence response and specificity C4,Balb/c mice; [10],0.000
same,Total single peptide,Balb/c mice; [10],23.4
same,Neutralizing antibody positive rate (%),[1],20%
